Active and inactive are the calls of the source.
How the values were obtained:
[1] = target: 26S proteasome non-ATPase regulatory subunit 14 (Homo sapiens, UniProt O00487); assay: inhibition of proteasome subunit RPN11 – biochemical, fluorescence polarization, uHTS hits, confirmation (AID 602368); format: functional
Prothrombin = Prothrombin (Bos taurus, UniProt P00735); assay: thrombin inhibition, dose response, biochemical, fluorescence polarization, uHTS hits (AID 602369); format: functional
[2] = target: 72 kDa type IV collagenase (Homo sapiens, UniProt P08253); assay: Dose Response validation of uHTS RPN11 inhibitor hits using a MMP-2 Fluorescence assay.; format: functional
Vero = Vero cell cytotoxicity, cytotoxicity control for flavivirus capping enzyme inhibitors (AID 588742); format: functional; conditions: Chlorocebus sabaeus
Large T antigen = Large T antigen (Simian virus 40, UniProt P03070); format: functional, Betapolyomavirus macacae;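 note: Confirmatory-stage PubChem screen for compounds that inhibit SV40 T antigen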
[3] = target: Adenosylmethionine-8-amino-7-oxononanoate aminotransferase (Mycobacterium tuberculosis, UniProt P9WQ81); assay: Mycobacterium tuberculosis BioA enzyme inhibitor Measured in Biochemical System Using Plate Reader - 2163-02_Inhibitor_Dose_CherryPick_Activity.; format: functional, Mycobacterium tuberculosis UT205
[4] = cytotoxicity toward NIH3T3 fibroblasts, dose response, counter-screen, cell-based, ATP luminescence, mouse fibroblasts (AID 2010); format: functional;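 note: cells exposed to compound for about 90 hours before reading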
cells = format: functional
[5] = inhibitors of intracellular T. cruzi replication, confirmation, NIH3T3 host cells, beta-gal luminescence (AID 2044); format: functional, cell-based;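 note: intracellular parasites grown in NIH/3T3 mouse fibroblasts as host cells; luminescent beta-galactosidase reporter signal from transgenic T. cruzi replicating inside host cells; inhibitors lower the luminescence signal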
[6] = tested on: Streptococcus sp. 'group A'; assay: growth inhibition of control SK(-) GAS strain, dose response, counter-screen for streptokinase expression inhibitor project, luminescence, kanamycin, BacTiterGlo, confirmation (AID 1900); format: functional, organism-based
Streptokinase A = target: T1, Streptokinase A (Streptococcus pyogenes serotype M1, UniProt P10520); assay: S. pyogenes streptokinase expression inhibitors, potency, dose response, plasminogen activation absorbance, OD405 (AID 1914); format: functional, Streptococcus pyogenes M1 GAS;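 note: secreted streptokinase activity via plasminogen activation per viability signal from cell pellet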
T1 sequence (P10520 whole entry): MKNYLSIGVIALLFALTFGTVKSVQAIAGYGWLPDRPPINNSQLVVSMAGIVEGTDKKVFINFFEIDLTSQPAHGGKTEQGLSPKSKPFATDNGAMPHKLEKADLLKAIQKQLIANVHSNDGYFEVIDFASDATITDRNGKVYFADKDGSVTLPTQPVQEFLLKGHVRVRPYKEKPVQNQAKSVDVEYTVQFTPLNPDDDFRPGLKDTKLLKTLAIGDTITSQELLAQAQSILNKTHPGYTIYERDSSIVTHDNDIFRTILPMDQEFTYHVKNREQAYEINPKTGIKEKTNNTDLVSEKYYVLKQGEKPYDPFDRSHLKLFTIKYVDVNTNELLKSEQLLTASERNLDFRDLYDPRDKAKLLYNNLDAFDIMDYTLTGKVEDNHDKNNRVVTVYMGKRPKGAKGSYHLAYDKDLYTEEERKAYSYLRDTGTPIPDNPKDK

Streptococcus = assay: Group A Streptococcus viability loss, dose response, counter-screen for streptokinase expression inhibitor project, luminescence, BacTiterGlo (AID 1915); format: functional, organism-based;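 note: potency for reduction of bacterial viability or growth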
[7] = target: T2, Nuclear receptor subfamily 0 group B member 1 (Homo sapiens, UniProt P51843); assay: Luminescence-based cell-based high throughput dose response assay for inhibitors of the orphan nuclear receptor subfamily 0, group B, member 1 (DAX1; NR0B1). [Related pubchem assays (depositor defined):AID504766, AID504790]; format: functional
T2 sequence (P51843 whole entry): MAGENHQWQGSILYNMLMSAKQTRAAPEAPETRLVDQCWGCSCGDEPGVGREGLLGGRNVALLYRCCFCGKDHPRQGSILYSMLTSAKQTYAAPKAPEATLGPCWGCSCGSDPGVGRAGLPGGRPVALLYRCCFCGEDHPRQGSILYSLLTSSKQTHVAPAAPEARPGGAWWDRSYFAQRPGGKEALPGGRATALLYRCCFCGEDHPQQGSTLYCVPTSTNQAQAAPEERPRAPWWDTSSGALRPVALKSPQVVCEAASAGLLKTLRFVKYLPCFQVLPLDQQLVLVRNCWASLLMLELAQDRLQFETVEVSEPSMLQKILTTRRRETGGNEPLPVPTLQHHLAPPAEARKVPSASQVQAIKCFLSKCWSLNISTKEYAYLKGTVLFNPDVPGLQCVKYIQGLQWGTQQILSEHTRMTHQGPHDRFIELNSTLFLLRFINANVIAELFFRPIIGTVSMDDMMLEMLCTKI

HEK293 [8] = assay: cells; format: functional, cell-based; conditions: Homo sapiens
[9] = target: T3, Ubiquitin-conjugating enzyme E2 N (Homo sapiens, UniProt P61088); format: functional;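 note: Dose-response confirmation in a TR-FRET assay detecting UBC13-driven polyubiquitin chain formation, inhibition measured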
T3 sequence (P61088 whole entry): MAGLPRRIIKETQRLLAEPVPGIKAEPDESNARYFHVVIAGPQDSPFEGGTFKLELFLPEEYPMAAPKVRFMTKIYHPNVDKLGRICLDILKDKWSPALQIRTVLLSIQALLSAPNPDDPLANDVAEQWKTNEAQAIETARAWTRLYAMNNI

HEK293 [10] = assay: inhibitors of LMP1-driven NF-kB reporter, dose response, cell-based, HEK293, luciferase, cherry-pick (AID 588343); format: functional; conditions: Homo sapiens
[11] = target: T4, Polyadenylate-binding protein 1 (Homo sapiens, UniProt P11940); assay: PABP1 MLLE–PAM2 binding inhibitor potency, dose response, biochemical, fluorescence polarization, FITC-PAM2 peptide (AID 602259); format: functional; conditions: read-out: IC50_Mean
[12] = target: T4, Polyadenylate-binding protein 1; assay: PABP1 MLLE–PAM2 interaction inhibitors, dose response, miRNA deadenylation inhibitor project, biochemical, fluorescence polarization, Cy5-PAM2 peptide, secondary (AID 602260); format: functional; conditions: read-out: IC50_Mean
[13] = target: Heat shock protein HSP 90-alpha (Homo sapiens, UniProt P07900); format: functional, organism-based
[14] = target: Arf-GAP with SH3 domain, ANK repeat and PH domain-containing protein 1 (Homo sapiens, UniProt Q9ULH1); format: functional;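 note: biochemical fluorescence polarization dose–response screen measuring inhibition of ASAP1; ASAP1 GAP domain stimulating GTP hydrolysis by truncated human ARF1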
[15] = inhibitors of SNCA 5'UTR-driven reporter translation, confirmation, H4 neuroglioma cells, luminescence (AID 1988); format: functional, cell-based
[16] = Luminescence Cell-Based Dose Response HTS to Identify Inhibitors of 5'UTR Stem-Loop Driven Prion Protein mRNA Translation in H4 Neuroglioblastoma Cells. [Related pubchem assays: 1827 (Project Summary), 1813 (Primary HTS)]; format: functional
[17] = A549 cell cytotoxicity, dose response, cytotoxicity control, plate reader, cherry-pick, antagonist series (AID 743412); format: functional, cell-based
[18] = HEK293 cell cytotoxicity, dose response, cytotoxicity control, plate reader, cherry-picked samples (AID 743446); format: functional, cell-based
[19] = MC4R antagonists, dose response, counter-screen for LGR2 antagonist project, cell-based, plate reader, cherry pick (AID 743444); format: functional;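 note: transfected HEK 293 cells stimulated with alpha-MSH peptide; potency of inhibitors of the alpha-MSH evoked signal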
[20] = inhibitors of firefly luciferase expression or activity, dose response, H4 neuroglioma cells, luminescence (AID 1990); format: functional, cell-based
[21] = LGR2 antagonists, dose response, cell-based, HEK293, CRE-luciferase reporter, cherry pick, set 2 (AID 743343); format: functional;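 note: transfected cells were stimulated with diluted bursicon conditioned medium after compound addition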
[22] = target: Hepatocyte nuclear factor 4-alpha (Homo sapiens, UniProt P41235); format: functional, cell-based;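 note: biochemical luminescence-based dose-response counterscreen measuring inhibition of HNF4 dimerization, run alongside a screen for blockers of ABHD5–perilipin-5 interaction; split luciferase complementation of HNF4 fusion proteins in cell lysate measuring dimerization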
Hepatocyte nuclear factor 4-alpha, sequence (P41235 whole entry, the tested form may be a part): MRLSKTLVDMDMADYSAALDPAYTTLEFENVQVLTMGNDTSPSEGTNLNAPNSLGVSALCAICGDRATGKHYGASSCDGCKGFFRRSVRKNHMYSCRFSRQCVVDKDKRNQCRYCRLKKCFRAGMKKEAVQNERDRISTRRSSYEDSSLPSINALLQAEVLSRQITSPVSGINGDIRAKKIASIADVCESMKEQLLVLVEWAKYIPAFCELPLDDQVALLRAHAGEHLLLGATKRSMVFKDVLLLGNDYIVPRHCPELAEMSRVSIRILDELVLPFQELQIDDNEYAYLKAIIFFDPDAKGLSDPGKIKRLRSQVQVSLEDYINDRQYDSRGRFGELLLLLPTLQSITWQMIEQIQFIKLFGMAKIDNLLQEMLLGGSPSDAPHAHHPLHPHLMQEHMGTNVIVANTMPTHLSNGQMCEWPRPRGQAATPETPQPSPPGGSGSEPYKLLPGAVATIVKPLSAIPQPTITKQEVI

72 kDa type IV collagenase, sequence (P08253 whole entry): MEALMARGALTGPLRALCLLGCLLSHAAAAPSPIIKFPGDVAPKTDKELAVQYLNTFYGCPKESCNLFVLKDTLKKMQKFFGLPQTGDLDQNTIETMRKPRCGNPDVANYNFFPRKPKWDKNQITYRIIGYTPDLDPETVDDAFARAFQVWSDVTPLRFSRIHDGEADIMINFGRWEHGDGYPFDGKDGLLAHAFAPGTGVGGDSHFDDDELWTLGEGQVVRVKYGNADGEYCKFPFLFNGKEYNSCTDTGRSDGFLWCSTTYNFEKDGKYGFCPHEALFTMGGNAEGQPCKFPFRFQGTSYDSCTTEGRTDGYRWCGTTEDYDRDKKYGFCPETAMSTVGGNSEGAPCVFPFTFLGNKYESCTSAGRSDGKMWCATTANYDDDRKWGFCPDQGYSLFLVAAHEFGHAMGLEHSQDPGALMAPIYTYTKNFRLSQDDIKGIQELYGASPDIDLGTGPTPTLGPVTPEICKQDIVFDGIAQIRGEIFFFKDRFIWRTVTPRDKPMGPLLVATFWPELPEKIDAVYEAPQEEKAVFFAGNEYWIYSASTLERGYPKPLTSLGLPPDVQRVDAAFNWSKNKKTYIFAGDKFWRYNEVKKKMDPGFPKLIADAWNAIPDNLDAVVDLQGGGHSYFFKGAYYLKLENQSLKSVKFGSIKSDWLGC
26S proteasome non-ATPase regulatory subunit 14, sequence (O00487 whole entry): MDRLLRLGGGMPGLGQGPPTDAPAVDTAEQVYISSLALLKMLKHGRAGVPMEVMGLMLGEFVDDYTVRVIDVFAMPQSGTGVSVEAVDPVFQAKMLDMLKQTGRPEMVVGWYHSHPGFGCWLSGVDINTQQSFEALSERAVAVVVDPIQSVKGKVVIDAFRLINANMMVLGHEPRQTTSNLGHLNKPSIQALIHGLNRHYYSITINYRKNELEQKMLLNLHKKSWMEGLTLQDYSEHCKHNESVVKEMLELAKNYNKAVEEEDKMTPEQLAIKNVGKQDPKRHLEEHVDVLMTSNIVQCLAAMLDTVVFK
T4 sequence (P11940 whole entry): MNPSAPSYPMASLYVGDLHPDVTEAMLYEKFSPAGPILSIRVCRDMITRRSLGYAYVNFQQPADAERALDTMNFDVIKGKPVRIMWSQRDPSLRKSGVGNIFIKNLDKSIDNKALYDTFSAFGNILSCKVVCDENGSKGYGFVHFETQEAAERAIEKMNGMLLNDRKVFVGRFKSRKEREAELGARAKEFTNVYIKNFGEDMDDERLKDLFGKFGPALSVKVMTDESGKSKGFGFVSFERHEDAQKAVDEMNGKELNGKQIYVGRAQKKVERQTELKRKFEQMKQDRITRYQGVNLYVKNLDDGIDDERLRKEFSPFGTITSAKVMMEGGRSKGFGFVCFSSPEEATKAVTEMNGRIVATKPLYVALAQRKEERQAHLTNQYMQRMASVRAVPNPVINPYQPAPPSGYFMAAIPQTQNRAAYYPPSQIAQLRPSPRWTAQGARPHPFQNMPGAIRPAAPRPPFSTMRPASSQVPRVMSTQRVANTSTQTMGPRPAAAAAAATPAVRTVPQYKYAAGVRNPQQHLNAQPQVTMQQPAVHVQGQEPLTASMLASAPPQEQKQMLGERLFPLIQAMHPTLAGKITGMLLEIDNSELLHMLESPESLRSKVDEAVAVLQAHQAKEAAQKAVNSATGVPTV
Large T antigen, sequence (P03070 whole entry): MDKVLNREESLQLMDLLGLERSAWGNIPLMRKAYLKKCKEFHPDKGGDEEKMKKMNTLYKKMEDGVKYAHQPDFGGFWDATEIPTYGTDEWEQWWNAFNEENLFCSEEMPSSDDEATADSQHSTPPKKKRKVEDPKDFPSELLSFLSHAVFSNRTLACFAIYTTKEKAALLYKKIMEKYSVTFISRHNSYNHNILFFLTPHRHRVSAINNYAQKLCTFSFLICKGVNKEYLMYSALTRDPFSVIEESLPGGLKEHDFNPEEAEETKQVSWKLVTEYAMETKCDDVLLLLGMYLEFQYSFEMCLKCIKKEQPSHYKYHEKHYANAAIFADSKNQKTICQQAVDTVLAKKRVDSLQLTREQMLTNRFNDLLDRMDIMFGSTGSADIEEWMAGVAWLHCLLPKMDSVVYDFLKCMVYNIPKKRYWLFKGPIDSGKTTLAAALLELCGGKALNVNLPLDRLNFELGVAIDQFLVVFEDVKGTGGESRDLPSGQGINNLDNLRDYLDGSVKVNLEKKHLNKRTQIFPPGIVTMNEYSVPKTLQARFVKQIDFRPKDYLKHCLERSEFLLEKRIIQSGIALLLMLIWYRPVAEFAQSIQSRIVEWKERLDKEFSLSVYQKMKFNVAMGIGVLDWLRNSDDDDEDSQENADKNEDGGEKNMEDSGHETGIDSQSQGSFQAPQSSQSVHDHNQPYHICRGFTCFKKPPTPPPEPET
Adenosylmethionine-8-amino-7-oxononanoate aminotransferase, sequence (P9WQ81 whole entry): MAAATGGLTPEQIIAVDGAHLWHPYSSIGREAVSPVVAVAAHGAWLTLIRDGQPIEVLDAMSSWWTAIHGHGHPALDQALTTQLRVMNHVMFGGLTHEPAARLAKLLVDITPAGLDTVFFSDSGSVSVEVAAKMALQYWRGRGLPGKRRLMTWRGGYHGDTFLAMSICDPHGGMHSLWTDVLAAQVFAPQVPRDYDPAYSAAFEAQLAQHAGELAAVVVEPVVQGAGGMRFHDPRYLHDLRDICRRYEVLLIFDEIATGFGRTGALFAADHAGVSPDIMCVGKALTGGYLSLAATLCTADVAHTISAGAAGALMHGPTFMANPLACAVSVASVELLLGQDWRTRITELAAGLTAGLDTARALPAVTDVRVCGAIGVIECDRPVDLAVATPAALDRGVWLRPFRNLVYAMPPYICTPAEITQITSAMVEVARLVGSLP
Arf-GAP with SH3 domain, ANK repeat and PH domain-containing protein 1, sequence (Q9ULH1 whole entry, the tested form may be a part): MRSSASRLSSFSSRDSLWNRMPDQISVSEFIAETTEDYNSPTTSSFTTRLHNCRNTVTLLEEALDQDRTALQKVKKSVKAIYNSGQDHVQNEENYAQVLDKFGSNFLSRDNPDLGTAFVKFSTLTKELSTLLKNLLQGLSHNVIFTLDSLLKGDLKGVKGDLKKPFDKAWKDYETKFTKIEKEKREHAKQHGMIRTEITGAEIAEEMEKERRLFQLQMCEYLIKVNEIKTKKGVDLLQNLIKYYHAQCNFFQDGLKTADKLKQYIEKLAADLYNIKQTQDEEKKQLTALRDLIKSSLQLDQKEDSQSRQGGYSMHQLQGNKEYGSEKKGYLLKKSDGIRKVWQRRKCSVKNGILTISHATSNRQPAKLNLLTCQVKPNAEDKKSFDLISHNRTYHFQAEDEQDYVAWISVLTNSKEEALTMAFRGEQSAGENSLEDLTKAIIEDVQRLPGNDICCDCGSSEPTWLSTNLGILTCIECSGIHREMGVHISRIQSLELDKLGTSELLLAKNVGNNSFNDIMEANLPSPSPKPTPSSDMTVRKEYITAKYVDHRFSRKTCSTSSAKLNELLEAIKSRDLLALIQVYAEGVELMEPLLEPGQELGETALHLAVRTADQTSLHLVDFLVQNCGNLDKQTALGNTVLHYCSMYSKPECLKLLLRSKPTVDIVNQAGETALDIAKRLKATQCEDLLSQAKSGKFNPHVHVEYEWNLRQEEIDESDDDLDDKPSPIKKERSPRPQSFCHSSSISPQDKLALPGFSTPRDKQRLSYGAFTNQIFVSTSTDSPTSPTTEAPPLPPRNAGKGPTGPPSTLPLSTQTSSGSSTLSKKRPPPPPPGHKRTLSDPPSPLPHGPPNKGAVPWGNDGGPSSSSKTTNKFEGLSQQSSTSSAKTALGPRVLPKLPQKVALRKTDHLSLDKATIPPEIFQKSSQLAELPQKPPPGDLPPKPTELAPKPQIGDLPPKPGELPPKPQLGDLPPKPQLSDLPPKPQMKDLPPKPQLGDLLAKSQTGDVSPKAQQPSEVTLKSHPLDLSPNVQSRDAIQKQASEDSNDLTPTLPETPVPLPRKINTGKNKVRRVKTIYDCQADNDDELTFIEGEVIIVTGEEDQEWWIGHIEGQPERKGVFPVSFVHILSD

**Q.** For `Cc1ccc(C)c(OCCn2cc(/C=C(/C#N)C(=O)NCC3CCCO3)c3ccccc32)c1` (configuration not stated), which IC50 [1] is on record?
**A.** Its IC50 is 27.5 µM (active).

**Q.** What about the IC50 (Prothrombin) of the same molecule?
**A.** Its IC50 is 45.4 µM (active).

**Q.** What about the IC50 [2] of the same molecule?
**A.** The IC50 was > 100 µM (inactive).

**Q.** With `O=c1c(-c2ccc([N+](=O)[O-])cc2)coc2c(O)c(O)ccc12` as the molecule, how does the CC50 (Vero) read?
**A.** Its CC50 is 21.4 µM (active).

**Q.** What about the IC50 (Large T antigen) of the same molecule?
**A.** Its IC50 is 13.8 µM (active).

**Q.** Which AC50 [3] does the source give for `COC(=O)c1sc(N)c(C(=O)OC)c1CSc1nnc(-c2ccccc2Cl)n1C` here?
**A.** The AC50 was 1.07 µM (active).

**Q.** With `Cc1ccc(N/N=C2\CS(=O)(=O)N(C)c3ccsc32)cc1` as the molecule, how does the EC50 [4] read?
**A.** The EC50 was > 60 µM (not active).

**Q.** And the IC50 (cells)?
**A.** Its IC50 is 21.2 µM (active).

**Q.** What about the EC50 [5] of the same molecule?
**A.** Its EC50 is 2.21 µM (active).

**Q.** What about the EC50 [6] of the same molecule?
**A.** The EC50 was 1.25 µM (active).

**Q.** And the EC50 (Streptokinase A)?
**A.** Its EC50 is 4.04 µM (active).

**Q.** What about the EC50 (Streptococcus) of the same molecule?
**A.** The EC50 was 11.3 µM (active).

**Q.** What about the IC50 [7] of the same molecule?
**A.** The IC50 was > 67.5 µM (inactive).

**Q.** And the IC50 (HEK293 [8])?
**A.** Its IC50 is > 67.5 µM (inactive).

**Q.** Which IC50 [9] does the source give for `CCOc1ccc(NC(=S)N=Nc2c(O)[nH]c3ccccc23)cc1` here?
**A.** The IC50 was > 20 µM (inactive).

**Q.** What about the AC50 (HEK293 [10]) of the same molecule?
**A.** Its AC50 is 2.7 µM (active).

**Q.** What about the EC50 [6] of the same molecule?
**A.** Its EC50 is 0.465 µM (active).

**Q.** What about the EC50 (Streptokinase A) of the same molecule?
**A.** The EC50 was > 150 µM (not active).

**Q.** What about the EC50 (Streptococcus) of the same molecule?
**A.** Its EC50 is 5.53 µM (active).

**Q.** And the IC50 [11]?
**A.** The IC50 was > 66 µM (inactive).

**Q.** What about the IC50 [12] of the same molecule?
**A.** Its IC50 is > 66 µM (inactive).

**Q.** With `COC(=O)c1ccc(NC(=O)c2cn(-c3ccccc3)nc2-c2ccncc2)cc1` as the molecule, how does the EC50 [4] read?
**A.** Its EC50 is > 60 µM (not active).

**Q.** What about the AC50 [13] of the same molecule?
**A.** The AC50 was 4.18 µM (active).

**Q.** What about the EC50 [5] of the same molecule?
**A.** The EC50 was 1.9 µM (active).

**Q.** And the IC50 [14]?
**A.** The IC50 was 17.2 µM (inactive).

**Q.** With `Cc1cc(N2CCCC2)c(F)cc1/C=C\[N+](=O)[O-]` as the molecule, how does the IC50 [1] read?
**A.** The IC50 was 14.7 µM (active).

**Q.** What about the IC50 (Prothrombin) of the same molecule?
**A.** Its IC50 is 20 µM (active).

**Q.** And the IC50 [2]?
**A.** The IC50 was > 100 µM (inactive).

**Q.** With `Cc1ccnc(NC(=O)CCC(=O)c2cccs2)c1` as the molecule, how does the AC50 (HEK293 [10]) read?
**A.** Its AC50 is 3 µM (active).

**Q.** What about the EC50 [15] of the same molecule?
**A.** The EC50 was 2.36 µM (active).

**Q.** And the EC50 [16]?
**A.** Its EC50 is 2.97 µM (active).

**Q.** And the AC50 [17]?
**A.** The AC50 was > 52 µM (inactive).

**Q.** What about the AC50 [18] of the same molecule?
**A.** Its AC50 is 34.9 µM (active).

**Q.** And the AC50 [19]?
**A.** The AC50 was 2.17 µM (active).

**Q.** What about the EC50 [20] of the same molecule?
**A.** Its EC50 is 4.73 µM (inconclusive).

**Q.** What about the AC50 [21] of the same molecule?
**A.** The AC50 was 2.38 µM (active).

**Q.** With `COc1ccc(NC(=O)C(c2ccccc2)n2c(=O)c(-c3ccco3)nc3ccccc32)cc1` (configuration not stated) as the molecule, how does the IC50 [22] read?
**A.** The IC50 was 12.8 µM (inactive).
